Measurements as given in the kinase profiling compilation of Christmann-Franck et al. (2016).
Values joined by “and” are separate entries in the source; they are usually repeats but may differ in a detail not shown here. Equal entries are not always repeated.

Key:
Assay in all cases: radiometric filter-binding kinase assay, Kinase HotSpot
Details in all cases: compound 0.5 µM; ATP 10 µM
ABL1 (human) = ABL1 (human) (UniProt P00519)
AXL (human) = AXL (human) (UniProt P30530)
BLK (human) = BLK (human) (UniProt P51451)
BRSK1 (human) = BRSK1 (human) (UniProt Q8TDC3)
CAMK1 (human) = CAMK1 (human) (UniProt Q14012)
CAMK1D (human) = CAMK1D (human) (UniProt Q8IU85)
CDC42BPB (human) = CDC42BPB (human) (UniProt Q9Y5S2)
CDK4 CCND1 (human) = CDK4 CCND1 (human) (UniProt P24385+P11802)
CDK4 CCND3 (human) = CDK4 CCND3 (human) (UniProt P30281+P11802)
CDK5 CDK5R1 p35 (human) = CDK5 CDK5R1 p35 (human) (UniProt Q00535+Q15078)
CDK9 CCNT1 (human) = CDK9 CCNT1 (human) (UniProt P50750+O60563)
CLK1 (human) = CLK1 (human) (UniProt P49759)
CLK3 (human) = CLK3 (human) (UniProt P49761)
CSNK1A1 (human) = CSNK1A1 (human) (UniProt P48729)
DMPK (human) = DMPK (human) (UniProt Q09013)
DYRK3 (human) = DYRK3 (human) (UniProt O43781)
EPHB4 (human) = EPHB4 (human) (UniProt P54760)
FGFR3 (human) = FGFR3 (human) (UniProt P22607)
FRK (human) = FRK (human) (UniProt P42685)
GRK5 (human) = GRK5 (human) (UniProt P34947)
JAK3 JH1 JH2 (human) = JAK3 JH1 JH2 (human) (UniProt P52333)
LCK (human) = LCK (human) (UniProt P06239)
LIMK1 (human) = LIMK1 (human) (UniProt P53667)
LYN (human) = LYN (human) (UniProt P07948)
MAP3K3 (human) = MAP3K3 (human) (UniProt Q99759)
MARK2 (human) = MARK2 (human) (UniProt Q7KZI7)
MUSK (human) = MUSK (human) (UniProt O15146)
PIM2 (human) = PIM2 (human) (UniProt Q9P1W9)
PRKD3 (human) = PRKD3 (human) (UniProt O94806)
PRKG1 (human) = PRKG1 (human) (UniProt Q13976)
RIPK2 (human) = RIPK2 (human) (UniProt O43353)
ROCK2 (human) = ROCK2 (human) (UniProt O75116)
ROS1 (human) = ROS1 (human) (UniProt P08922)
RPS6KB1 (human) = RPS6KB1 (human) (UniProt P23443)
RPS6KB2 (human) = RPS6KB2 (human) (UniProt Q9UBS0)
SGK2 (human) = SGK2 (human) (UniProt Q9HBY8)
STK39 (human) = STK39 (human) (UniProt Q9UEW8)
TAOK1 (human) = TAOK1 (human) (UniProt Q7L7X3)
TGFBR2 (human) = TGFBR2 (human) (UniProt P37173)
ULK2 (human) = ULK2 (human) (UniProt Q8IYT8)
WNK2 (human) = WNK2 (human) (UniProt Q9Y3S1)
YES1 (human) = YES1 (human) (UniProt P07947)

Sequence of PRKG1 (human) (Q13976 whole entry, looked up): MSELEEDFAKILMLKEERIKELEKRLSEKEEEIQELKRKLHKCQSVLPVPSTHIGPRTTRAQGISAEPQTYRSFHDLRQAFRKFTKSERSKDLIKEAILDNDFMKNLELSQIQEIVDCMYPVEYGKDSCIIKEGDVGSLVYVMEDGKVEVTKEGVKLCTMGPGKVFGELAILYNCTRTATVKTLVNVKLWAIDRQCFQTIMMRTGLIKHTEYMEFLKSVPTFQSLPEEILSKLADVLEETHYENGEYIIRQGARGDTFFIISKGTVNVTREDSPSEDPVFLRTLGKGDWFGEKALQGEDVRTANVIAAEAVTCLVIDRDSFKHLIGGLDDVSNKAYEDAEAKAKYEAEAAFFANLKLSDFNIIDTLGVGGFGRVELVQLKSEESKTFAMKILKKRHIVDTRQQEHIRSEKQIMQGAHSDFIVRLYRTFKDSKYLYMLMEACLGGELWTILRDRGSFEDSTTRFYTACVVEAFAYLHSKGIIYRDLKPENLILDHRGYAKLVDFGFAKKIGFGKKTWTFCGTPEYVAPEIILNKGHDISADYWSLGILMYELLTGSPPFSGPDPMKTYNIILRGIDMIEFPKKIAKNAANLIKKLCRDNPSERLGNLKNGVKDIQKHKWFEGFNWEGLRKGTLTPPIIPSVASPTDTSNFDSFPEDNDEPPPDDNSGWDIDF
Sequence of LYN (human) (P07948 whole entry, looked up): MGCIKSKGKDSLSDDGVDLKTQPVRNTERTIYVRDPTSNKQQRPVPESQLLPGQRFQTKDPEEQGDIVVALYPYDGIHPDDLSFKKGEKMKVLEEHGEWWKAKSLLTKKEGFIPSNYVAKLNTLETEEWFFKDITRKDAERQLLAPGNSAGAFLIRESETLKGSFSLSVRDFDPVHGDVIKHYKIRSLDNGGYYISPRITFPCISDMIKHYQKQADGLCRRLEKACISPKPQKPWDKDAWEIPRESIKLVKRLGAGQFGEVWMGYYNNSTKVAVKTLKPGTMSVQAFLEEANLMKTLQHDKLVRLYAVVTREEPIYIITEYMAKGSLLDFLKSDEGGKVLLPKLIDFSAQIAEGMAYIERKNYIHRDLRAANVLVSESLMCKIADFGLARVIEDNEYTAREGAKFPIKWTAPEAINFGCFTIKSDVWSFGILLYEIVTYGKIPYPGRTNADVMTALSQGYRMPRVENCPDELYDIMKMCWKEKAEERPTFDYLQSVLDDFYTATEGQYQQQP
Sequence of RIPK2 (human) (O43353 whole entry, looked up): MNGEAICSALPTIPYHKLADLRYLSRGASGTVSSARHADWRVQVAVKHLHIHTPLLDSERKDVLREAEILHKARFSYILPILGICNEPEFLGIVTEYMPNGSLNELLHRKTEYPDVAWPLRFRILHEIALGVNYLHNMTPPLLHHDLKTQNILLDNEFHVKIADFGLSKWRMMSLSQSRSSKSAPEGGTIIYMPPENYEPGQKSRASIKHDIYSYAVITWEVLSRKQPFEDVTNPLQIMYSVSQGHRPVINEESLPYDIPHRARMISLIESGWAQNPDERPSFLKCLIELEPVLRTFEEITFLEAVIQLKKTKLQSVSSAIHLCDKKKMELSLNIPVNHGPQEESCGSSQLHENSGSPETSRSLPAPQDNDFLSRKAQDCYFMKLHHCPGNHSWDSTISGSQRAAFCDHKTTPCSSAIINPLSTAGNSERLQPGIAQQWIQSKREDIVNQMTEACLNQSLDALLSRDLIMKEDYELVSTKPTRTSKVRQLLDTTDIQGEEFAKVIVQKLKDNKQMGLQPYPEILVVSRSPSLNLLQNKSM
Sequence of LCK (human) (P06239 whole entry, looked up): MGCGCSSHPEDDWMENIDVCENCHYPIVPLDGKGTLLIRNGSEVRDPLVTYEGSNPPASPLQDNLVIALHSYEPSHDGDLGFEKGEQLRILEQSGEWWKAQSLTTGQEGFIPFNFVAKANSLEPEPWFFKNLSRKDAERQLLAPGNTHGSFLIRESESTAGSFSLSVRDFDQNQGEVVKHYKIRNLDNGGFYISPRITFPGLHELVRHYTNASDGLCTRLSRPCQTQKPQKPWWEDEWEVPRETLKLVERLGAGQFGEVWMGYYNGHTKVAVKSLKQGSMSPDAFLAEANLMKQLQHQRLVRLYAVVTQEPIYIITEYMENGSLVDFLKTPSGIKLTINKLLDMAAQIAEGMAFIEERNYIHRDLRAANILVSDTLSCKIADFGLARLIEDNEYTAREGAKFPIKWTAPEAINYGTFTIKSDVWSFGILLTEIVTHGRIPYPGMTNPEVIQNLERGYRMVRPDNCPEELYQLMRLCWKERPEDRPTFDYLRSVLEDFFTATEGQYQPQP
Sequence of TGFBR2 (human) (P37173 whole entry, looked up): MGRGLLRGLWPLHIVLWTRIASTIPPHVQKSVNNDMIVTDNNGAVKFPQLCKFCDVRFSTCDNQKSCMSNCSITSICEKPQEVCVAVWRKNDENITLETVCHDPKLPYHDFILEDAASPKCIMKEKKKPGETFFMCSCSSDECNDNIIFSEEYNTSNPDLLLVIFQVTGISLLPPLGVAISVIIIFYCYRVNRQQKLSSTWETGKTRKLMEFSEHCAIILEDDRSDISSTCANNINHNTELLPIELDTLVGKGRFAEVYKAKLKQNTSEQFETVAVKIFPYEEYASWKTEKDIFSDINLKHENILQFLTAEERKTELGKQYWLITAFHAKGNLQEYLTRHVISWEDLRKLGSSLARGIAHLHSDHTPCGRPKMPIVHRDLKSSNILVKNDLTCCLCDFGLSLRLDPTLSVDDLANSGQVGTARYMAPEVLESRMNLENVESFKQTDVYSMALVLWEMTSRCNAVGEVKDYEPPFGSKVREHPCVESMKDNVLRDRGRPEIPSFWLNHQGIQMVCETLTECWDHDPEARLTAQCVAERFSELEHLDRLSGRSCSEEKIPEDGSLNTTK
Sequence of CSNK1A1 (human) (P48729 whole entry, looked up): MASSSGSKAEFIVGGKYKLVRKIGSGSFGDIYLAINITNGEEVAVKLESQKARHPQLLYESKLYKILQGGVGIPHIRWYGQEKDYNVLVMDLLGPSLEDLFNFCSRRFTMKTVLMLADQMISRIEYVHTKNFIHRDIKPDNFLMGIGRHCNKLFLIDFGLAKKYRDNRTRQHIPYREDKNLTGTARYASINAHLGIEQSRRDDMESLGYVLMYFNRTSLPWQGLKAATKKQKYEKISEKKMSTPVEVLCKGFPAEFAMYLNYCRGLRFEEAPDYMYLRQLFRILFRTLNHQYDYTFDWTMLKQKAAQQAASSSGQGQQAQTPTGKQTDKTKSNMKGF
Sequence of CAMK1 (human) (Q14012 whole entry, looked up): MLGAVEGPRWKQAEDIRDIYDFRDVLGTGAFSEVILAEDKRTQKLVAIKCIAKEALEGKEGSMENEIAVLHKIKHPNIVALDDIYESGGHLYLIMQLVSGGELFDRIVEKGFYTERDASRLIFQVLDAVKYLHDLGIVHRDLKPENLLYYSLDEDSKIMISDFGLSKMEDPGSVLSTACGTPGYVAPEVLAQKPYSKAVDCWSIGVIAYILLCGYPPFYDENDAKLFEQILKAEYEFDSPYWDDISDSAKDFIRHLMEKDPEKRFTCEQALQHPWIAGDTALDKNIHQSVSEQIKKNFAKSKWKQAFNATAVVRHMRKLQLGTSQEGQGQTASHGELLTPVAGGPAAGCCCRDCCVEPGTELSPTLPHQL
Sequence of PIM2 (human) (Q9P1W9 whole entry, looked up): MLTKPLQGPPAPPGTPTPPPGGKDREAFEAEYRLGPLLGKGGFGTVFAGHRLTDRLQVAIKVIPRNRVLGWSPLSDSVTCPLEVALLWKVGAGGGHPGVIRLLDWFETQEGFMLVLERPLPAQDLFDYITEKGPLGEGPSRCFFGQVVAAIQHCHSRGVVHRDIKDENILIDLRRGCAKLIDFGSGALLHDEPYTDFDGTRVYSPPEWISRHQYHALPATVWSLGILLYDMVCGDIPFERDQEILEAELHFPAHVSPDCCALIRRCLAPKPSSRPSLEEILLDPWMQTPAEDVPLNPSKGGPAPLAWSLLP
Sequence of AXL (human) (P30530 whole entry, looked up): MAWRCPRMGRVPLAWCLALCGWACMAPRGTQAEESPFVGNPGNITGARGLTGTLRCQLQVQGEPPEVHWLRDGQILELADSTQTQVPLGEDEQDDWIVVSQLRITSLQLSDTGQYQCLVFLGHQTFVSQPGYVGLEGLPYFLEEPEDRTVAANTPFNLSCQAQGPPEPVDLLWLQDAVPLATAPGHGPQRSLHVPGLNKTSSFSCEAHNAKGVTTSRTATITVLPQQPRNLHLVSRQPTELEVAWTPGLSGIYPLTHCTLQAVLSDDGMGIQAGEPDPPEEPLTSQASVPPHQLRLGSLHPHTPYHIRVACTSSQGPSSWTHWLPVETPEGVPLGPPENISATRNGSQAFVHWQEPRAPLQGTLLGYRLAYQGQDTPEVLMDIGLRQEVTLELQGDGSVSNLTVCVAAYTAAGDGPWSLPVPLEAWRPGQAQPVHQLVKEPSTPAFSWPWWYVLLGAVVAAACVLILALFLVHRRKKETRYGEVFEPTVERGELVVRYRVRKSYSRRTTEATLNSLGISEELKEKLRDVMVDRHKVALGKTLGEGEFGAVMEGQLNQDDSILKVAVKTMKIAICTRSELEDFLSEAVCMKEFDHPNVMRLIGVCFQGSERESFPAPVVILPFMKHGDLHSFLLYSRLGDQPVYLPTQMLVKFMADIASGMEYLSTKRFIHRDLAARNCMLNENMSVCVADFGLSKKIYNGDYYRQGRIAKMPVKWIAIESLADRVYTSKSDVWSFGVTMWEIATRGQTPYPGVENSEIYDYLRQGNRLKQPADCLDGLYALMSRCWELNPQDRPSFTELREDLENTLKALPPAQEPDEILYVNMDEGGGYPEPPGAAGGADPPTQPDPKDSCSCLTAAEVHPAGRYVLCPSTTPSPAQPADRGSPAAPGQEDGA

Cc1cncc2cccc(S(=O)(=O)N3CCCN(C(=O)CN)C[C@H]3C)c12
residual activity (ABL1 (human)): 99.3%
residual activity (AXL (human)): 98.8%
residual activity (BLK (human)): 97.7%
residual activity (BRSK1 (human)): 94.2%
residual activity (CAMK1 (human)): 102%
residual activity (CAMK1D (human)): 104%
residual activity (CDC42BPB (human)): 105%
residual activity (CDK4 CCND1 (human)): 114%
residual activity (CDK4 CCND3 (human)): 105%
residual activity (CDK5 CDK5R1 p35 (human)): 97.4%
residual activity (CDK9 CCNT1 (human)): 86.7%
residual activity (CLK1 (human)): 104%
residual activity (CLK3 (human)): 95.9%
residual activity (CSNK1A1 (human)): 98.9%
residual activity (DMPK (human)): 105%
residual activity (DYRK3 (human)): 107%
residual activity (EPHB4 (human)): 85.1%
residual activity (FGFR3 (human)): 97.7%
residual activity (FRK (human)): 114%
residual activity (GRK5 (human)): 97.1%
residual activity (JAK3 JH1 JH2 (human)): 93.1%
residual activity (LCK (human)): 97%
residual activity (LIMK1 (human)): 91.9%
residual activity (LYN (human)): 101%
residual activity (MAP3K3 (human)): 99.1%
residual activity (MARK2 (human)): 89.1%
residual activity (MUSK (human)): 88.7%
residual activity (PIM2 (human)): 104%
residual activity (PRKD3 (human)): 85.4%
residual activity (PRKG1 (human)): 78.7% and 85%
residual activity (RIPK2 (human)): 94.4%
residual activity (ROCK2 (human)): 3.22%
residual activity (ROS1 (human)): 60.3%
residual activity (RPS6KB1 (human)): 93.3%
residual activity (RPS6KB2 (human)): 99.3%
residual activity (SGK2 (human)): 102%
residual activity (STK39 (human)): 95.3%
residual activity (TAOK1 (human)): 84.2%
residual activity (TGFBR2 (human)): 132%
residual activity (ULK2 (human)): 98.8%
residual activity (WNK2 (human)): 98%
residual activity (YES1 (human)): 92%

Fc1ccc(-c2nc3n(c2-c2ccncc2)CCS3)cc1
residual activity (ABL1 (human)): 102%
residual activity (AXL (human)): 95.8%
residual activity (BLK (human)): 97.8%
residual activity (BRSK1 (human)): 93.9%
residual activity (CAMK1 (human)): 107%
residual activity (CAMK1D (human)): 100%
residual activity (CDC42BPB (human)): 115%
residual activity (CDK4 CCND1 (human)): 114%
residual activity (CDK4 CCND3 (human)): 94.9%
residual activity (CDK5 CDK5R1 p35 (human)): 97.8%
residual activity (CDK9 CCNT1 (human)): 94.9%
residual activity (CLK1 (human)): 103%
residual activity (CLK3 (human)): 94.4%
residual activity (CSNK1A1 (human)): 58.8%
residual activity (DMPK (human)): 102%
residual activity (DYRK3 (human)): 103%
residual activity (EPHB4 (human)): 88%
residual activity (FGFR3 (human)): 91.8%
residual activity (FRK (human)): 104%
residual activity (GRK5 (human)): 103%
residual activity (JAK3 JH1 JH2 (human)): 94.3%
residual activity (LCK (human)): 96.2%
residual activity (LIMK1 (human)): 89.3%
residual activity (LYN (human)): 106% and 97.4%
residual activity (MAP3K3 (human)): 100%
residual activity (MARK2 (human)): 96.4%
residual activity (MUSK (human)): 91.1%
residual activity (PIM2 (human)): 121%
residual activity (PRKD3 (human)): 88.2%
residual activity (PRKG1 (human)): 103% and 95.9%
residual activity (RIPK2 (human)): 84.7%
residual activity (ROCK2 (human)): 99.1%
residual activity (ROS1 (human)): 95.8%
residual activity (RPS6KB1 (human)): 108%
residual activity (RPS6KB2 (human)): 85.6%
residual activity (SGK2 (human)): 105%
residual activity (STK39 (human)): 103%
residual activity (TAOK1 (human)): 97.7%
residual activity (TGFBR2 (human)): 137%
residual activity (ULK2 (human)): 106%
residual activity (WNK2 (human)): 104%
residual activity (YES1 (human)): 99.4%
